Each structure is given as a SMILES string.

In general, EC50 refers to the concentration needed to bring the measured effect to its halfway point.

The assay has as its system HBV rcDNA in HepDE19 cells. The experiment in a line: HepDE19 assay with bDNA quantitation of HBV rcDNA. The format is cell-based, hepatitis B virus. The settings on record: Hepatitis B virus, HepDE19, HepDE19 assay, inhibition of rcDNA formation, bDNA quantitation; read-out: DE-19bDNA EC50.
With `CN(C(=O)c1cnn(C(C)(C)C)c1)[C@@H]1COCc2[nH]c(=O)c3cc(F)c(F)cc3c21` [Compound 196, (S)-1-(tert-Butyl)-N-(8,9-difluoro-6-oxo-1,4,5,6-tetrahydro-2H-pyrano[3,4-c]isoquinolin-1-yl)-N-methyl-1H-pyrazole-4-carboxamide], the EC50 is 3100 nM.
In the case of `CN(C(=O)c1cnn(C(F)(F)F)c1)[C@@H]1COCc2[nH]c(=O)c3cc(F)c(F)cc3c21` [Compound 197, (S)-N-(8,9-Difluoro-6-oxo-1,4,5,6-tetrahydro-2H-pyrano[3,4-c]isoquinolin-1-yl)-N-methyl-1-(trifluoromethyl)-1H-pyrazole-4-carboxamide] it was 440 nM; in that of `CN(C(=O)c1cc(Br)c[nH]1)[C@@H]1COCc2[nH]c(=O)c3cc(F)c(F)cc3c21` [Compound 198, (S)-4-Bromo-N-(8,9-difluoro-6-oxo-1,4,5,6-tetrahydro-2H-pyrano[3,4-c]isoquinolin-1-yl)-N-methyl-1H-pyrrole-2-carboxamide], 220 nM.
`CN(C(=O)c1ccc(Cl)c(=O)[nH]1)[C@@H]1COCc2[nH]c(=O)c3cc(F)c(F)cc3c21` [Compound 201, (S)-5-Chloro-N-(8,9-difluoro-6-oxo-1,4,5,6-tetrahydro-2H-pyrano[3,4-c]isoquinolin-1-yl)-N-methyl-6-oxo-1,6-dihydropyridine-2-carboxamide]: the EC50 was 10000 nM.
With `CN(C(=O)c1cc2cc(Cl)ncc2[nH]1)[C@@H]1COCc2[nH]c(=O)c3cc(F)c(F)cc3c21` [Compound 204, (S)-5-Chloro-N-(8,9-difluoro-6-oxo-1,4,5,6-tetrahydro-2H-pyrano[3,4-c]isoquinolin-1-yl)-N-methyl-1H-pyrrolo[2,3-c]pyridine-2-carboxamide], the EC50 was 40 nM.
Next, `CN(C(=O)c1c[nH]c(=O)c(Br)c1)[C@@H]1COCc2[nH]c(=O)c3cc(F)c(F)cc3c21` [Compound 205, (S)-5-Bromo-N-(8,9-difluoro-6-oxo-1,4,5,6-tetrahydro-2H-pyrano[3,4-c]isoquinolin-1-yl)-N-methyl-6-oxo-1,6-dihydropyridine-3-carboxamide]: 15800 nM; `CN(C(=O)c1cc2nc(Cl)ccc2[nH]1)[C@@H]1COCc2[nH]c(=O)c3cc(F)c(F)cc3c21` [Compound 206, (S)-5-Chloro-N-(8,9-difluoro-6-oxo-1,4,5,6-tetrahydro-2H-pyrano[3,4-c]isoquinolin-1-yl)-N-methyl-1H-pyrrolo[3,2-b]pyridine-2-carboxamide]: 630 nM; `CN(C(=O)C1(O)CCCCC1)[C@@H]1COCc2[nH]c(=O)c3cc(F)c(F)cc3c21` [Compound 211, (S)-N-(8,9-Difluoro-6-oxo-1,4,5,6-tetrahydro-2H-pyrano[3,4-c]isoquinolin-1-yl)-1-hydroxy-N-methylcyclohexane-1-carboxamide]: 7660 nM.
Next, `CN(C(=O)c1cc2cc(F)c(C(F)F)cc2[nH]1)[C@@H]1COCc2[nH]c(=O)c3cc(F)c(F)cc3c21` [Compound 212, (S)-N-(8,9-Difluoro-6-oxo-1,4,5,6-tetrahydro-2H-pyrano[3,4-c]isoquinolin-1-yl)-6-(difluoromethyl)-5-fluoro-N-methyl-1H-indole-2-carboxamide]: 10 nM.
Next, `CN(C(=O)c1cc2cc(Br)ncc2[nH]1)[C@@H]1COCc2[nH]c(=O)c3cc(F)c(F)cc3c21` [Compound 213, (S)-5-Bromo-N-(8,9-difluoro-6-oxo-1,4,5,6-tetrahydro-2H-pyrano[3,4-c]isoquinolin-1-yl)-N-methyl-1H-pyrrolo[2,3-c]pyridine-2-carboxamide]: 80 nM; `CN(C(=O)c1cc2cc(C(F)(F)F)cnc2[nH]1)[C@@H]1COCc2[nH]c(=O)c3cc(F)c(F)cc3c21` [Compound 214, (S)-N-(8,9-difluoro-6-oxo-1,4,5,6-tetrahydro-2H-pyrano[3,4-c]isoquinolin-1-yl)-N-methyl-5-(trifluoromethyl)-1H-pyrrolo[2,3-b]pyridine-2-carboxamide]: 1000 nM.
For the compound `CN(C(=O)c1c[nH]c(=O)c(Cl)c1)[C@@H]1COCc2[nH]c(=O)c3cc(F)c(F)cc3c21` [Compound 215, (S)-5-Chloro-N-(8,9-difluoro-6-oxo-1,4,5,6-tetrahydro-2H-pyrano[3,4-c]isoquinolin-1-yl)-N-methyl-6-oxo-1,6-dihydropyridine-3-carboxamide], the EC50 was 20100 nM.
Next, `CN(C(=O)c1ccc(Br)c(=O)[nH]1)[C@@H]1COCc2[nH]c(=O)c3cc(F)c(F)cc3c21` [Compound 216, (S)-5-Bromo-N-(8,9-difluoro-6-oxo-1,4,5,6-tetrahydro-2H-pyrano[3,4-c]isoquinolin-1-yl)-N-methyl-6-oxo-1,6-dihydropyridine-2-carboxamide]: 7300 nM; `CN(C(=O)c1cc2nc(C(F)(F)F)ccc2[nH]1)[C@@H]1COCc2[nH]c(=O)c3cc(F)c(F)cc3c21` [Compound 219, (S)-N-(8,9-difluoro-6-oxo-1,4,5,6-tetrahydro-2H-pyrano[3,4-c]isoquinolin-1-yl)-N-methyl-5-(trifluoromethyl)-1H-pyrrolo[3,2-b]pyridine-2-carboxamide]: 1440 nM.
In the case of `CN(C(=O)c1cc2ccc(F)cn2c1)[C@@H]1COCc2[nH]c(=O)c3cc(F)c(F)cc3c21` [Compound 224, (S)-N-(8,9-Difluoro-6-oxo-1,4,5,6-tetrahydro-2H-pyrano[3,4-c]isoquinolin-1-yl)-6-fluoro-N-methylindolizine-2-carboxamide] it was 10 nM; in that of `CN(C(=O)c1cnc(C(F)(F)F)[nH]1)[C@@H]1COCc2[nH]c(=O)c3cc(F)c(F)cc3c21` [Compound 225, (S)-N-(8,9-Difluoro-6-oxo-1,4,5,6-tetrahydro-2H-pyrano[3,4-c]isoquinolin-1-yl)-N-methyl-2-(trifluoromethyl)-1H-imidazole-5-carboxamide], 13000 nM.
Next, `CN(C(=O)c1c[nH]c(=O)c(F)c1)[C@@H]1COCc2[nH]c(=O)c3cc(F)c(F)cc3c21` [Compound 226, (S)-N-(8,9-Difluoro-6-oxo-1,4,5,6-tetrahydro-2H-pyrano[3,4-c]isoquinolin-1-yl)-5-fluoro-N-methyl-6-oxo-1,6-dihydropyridine-3-carboxamide]: 12500 nM; `CN(C(=O)c1ccc2cccn2c1)[C@@H]1COCc2[nH]c(=O)c3cc(F)c(F)cc3c21` [Compound 227, (S)-N-(8,9-Difluoro-6-oxo-1,4,5,6-tetrahydro-2H-pyrano[3,4-c]isoquinolin-1-yl)-N-methylindolizine-6-carboxamide]: 20 nM; `CN(C(=O)c1ccn2cccc2c1)[C@@H]1COCc2[nH]c(=O)c3cc(F)c(F)cc3c21` [Compound 228, (S)-N-(8,9-Difluoro-6-oxo-1,4,5,6-tetrahydro-2H-pyrano[3,4-c]isoquinolin-1-yl)-N-methylindolizine-7-carboxamide]: 60 nM.
Take `CN(C(=O)C(O)(c1ccccc1)c1ccccc1)[C@@H]1COCc2[nH]c(=O)c3cc(F)c(F)cc3c21` [Compound 229, (S)-N-(8,9-Difluoro-6-oxo-1,4,5,6-tetrahydro-2H-pyrano[3,4-c]isoquinolin-1-yl)-2-hydroxy-N-methyl-2,2-diphenylacetamide]: the EC50 is 8400 nM.
As for `CN(C(=O)c1cc2c(C(F)F)cc(F)cc2[nH]1)[C@@H]1COCc2[nH]c(=O)c3cc(F)c(F)cc3c21` [Compound 230, (S)-N-(8,9-Difluoro-6-oxo-1,4,5,6-tetrahydro-2H-pyrano[3,4-c]isoquinolin-1-yl)-4-(difluoromethyl)-6-fluoro-N-methyl-1H-indole-2-carboxamide], the 50% effective concentration (EC50) is 10 nM.
As for `CN(C(=O)c1cc2cc(F)ccn2c1)[C@@H]1COCc2[nH]c(=O)c3cc(F)c(F)cc3c21` [Compound 231, (S)-N-(8,9-Difluoro-6-oxo-1,4,5,6-tetrahydro-2H-pyrano[3,4-c]isoquinolin-1-yl)-7-fluoro-N-methylindolizine-2-carboxamide], the EC50 turned out to be 10 nM.
Regarding `CN(C(=O)c1cc2nc(F)ccc2[nH]1)[C@@H]1COCc2[nH]c(=O)c3cc(F)c(F)cc3c21` [Compound 232, (S)-N-(8,9-Difluoro-6-oxo-1,4,5,6-tetrahydro-2H-pyrano[3,4-c]isoquinolin-1-yl)-5-fluoro-N-methyl-1H-pyrrolo[3,2-b]pyridine-2-carboxamide], the EC50 was determined as 70 nM.
In the case of `CN(C(=O)C1Cc2cc(F)c(F)cc2C1)[C@@H]1COCc2[nH]c(=O)c3cc(F)c(F)cc3c21` [Compound 233, (S)-N-(8,9-Difluoro-6-oxo-1,4,5,6-tetrahydro-2H-pyrano[3,4-c]isoquinolin-1-yl)-5,6-difluoro-N-methyl-2,3-dihydro-1H-indene-2-carboxamide] it was 40 nM.
Next, `CN(C(=O)c1cnn(-c2ccc(F)cc2)c1)[C@@H]1COCc2[nH]c(=O)c3cc(F)c(F)cc3c21` [Compound 234, (S)-N-(8,9-Difluoro-6-oxo-1,4,5,6-tetrahydro-2H-pyrano[3,4-c]isoquinolin-1-yl)-1-(4-fluorophenyl)-N-methyl-1H-pyrazole-4-carboxamide]: 10500 nM; `CN(C(=O)c1cc(-c2ccc(F)cc2)no1)[C@@H]1COCc2[nH]c(=O)c3cc(F)c(F)cc3c21` [Compound 236, (S)-N-(8,9-Difluoro-6-oxo-1,4,5,6-tetrahydro-2H-pyrano[3,4-c]isoquinolin-1-yl)-3-(4-fluorophenyl)-N-methylisoxazole-5-carboxamide]: 15100 nM; `CN(C(=O)c1ccc(Oc2cccc(F)c2)cc1)[C@@H]1COCc2[nH]c(=O)c3cc(F)c(F)cc3c21` [Compound 237, (S)-N-(8,9-Difluoro-6-oxo-1,4,5,6-tetrahydro-2H-pyrano[3,4-c]isoquinolin-1-yl)-4-(3-fluorophenoxy)-N-methylbenzamide]: 6900 nM.
Turning to `CN(C(=O)c1cc2cc(F)c(F)cc2[nH]1)[C@@H]1COCc2c1c1cc(F)c(F)cc1c(=O)n2C` [Compound 240, (S)-N-(8,9-Difluoro-5-methyl-6-oxo-1,4,5,6-tetrahydro-2H-pyrano[3,4-c]isoquinolin-1-yl)-5,6-difluoro-N-methyl-1H-indole-2-carboxamide], the EC50 turned out to be 10 nM.

Values taken from patent US20240228504A1, “SUBSTITUTED TRICYCLIC AMIDES, ANALOGUES THEREOF, AND METHODS USING SAME” (Arbutus Biopharma Corporation, priority 2020, published 2024).
